In paper PMC11212260, “Next-generation neuropeptide Y receptor small-molecule agonists inhibit mosquito-biting behavior” (Parasites & Vectors, 2024):
Values joined by “and” are separate entries in the source; they are usually repeats but may differ in a detail not shown here. Equal values may be shown once. Read-outs that look alike come from different tables or passages of the source.

Legend:
Ae. aegypti NPYLR7 = Ae. aegypti NPYLR7 (Aedes aegypti, UniProt U5N1H5); test: In vitro calcium (GCaMP6s) FLIPR assay in HEK293T cells transfected with NPYLR7; assay type: cell-based; conditions: for activation at 100 µM: HEK-293T, single replicate of the dose-response curve, normalised response
Sequence of Ae. aegypti NPYLR7 (U5N1H5 entry or part of it): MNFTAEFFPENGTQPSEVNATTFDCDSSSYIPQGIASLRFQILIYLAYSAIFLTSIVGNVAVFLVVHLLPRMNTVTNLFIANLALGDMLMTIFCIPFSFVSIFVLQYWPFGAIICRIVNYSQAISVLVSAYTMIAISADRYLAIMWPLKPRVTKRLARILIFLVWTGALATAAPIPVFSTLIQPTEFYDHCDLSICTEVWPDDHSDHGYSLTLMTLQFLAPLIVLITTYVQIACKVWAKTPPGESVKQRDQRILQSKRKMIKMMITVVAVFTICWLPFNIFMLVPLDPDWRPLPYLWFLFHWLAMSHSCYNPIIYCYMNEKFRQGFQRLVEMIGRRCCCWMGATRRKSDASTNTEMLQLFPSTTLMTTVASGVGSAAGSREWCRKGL
Method: The in vitro screening assay was adapted from, and carried out at HD Biosciences (HDB, Shanghai) as follows: HEK293T (Thermo Fisher Scientific) cells were grown in Dulbecco’s modified Eagle medium (DMEM) (high glucose, with glutamine), 10% fetal bovine serum, 1% penicillin–streptomycin (Pen/Strep), seeded in a 75 cm^2 flask, and incubated at 37 °C and 5% CO2. Cells were transiently transfected with 1 μg of each plasmid expressing GCaMP6s (Addgene […]) (Chen et al., 2013), mouse Gqα15 (Addgene #40753) (Offermanns and Simon, 1995) and Ae. aegypti NPYLR7 (Addgene #52392) (Duvall et al. 2019) using Lipofectamine 2000 (Invitrogen) in 4 ml of Opti-MEM (Invitrogen). This mixture was added to a plate after 20 min and incubated for 6–8 h. Cells were then trypsinized, resuspended in phenol-free media, and plated in a 384-well plate (Greiner Bio-One) at a density of 20,000 cells per 40 μl, and incubated overnight (37 °C, 5% CO2). Cells were imaged directly in phenol-free media. Plates were loaded into a Molecular Devices fluorescence imaging plate reader (FLIPR) with an excitation wavelength of 470–495 nm and an emitted wavelength of 515–575 nm. Plates were imaged every second for 5 min. After 30 s of baseline fluorescence recording, 10 μl of the test compound in reading buffer [Hank’s Balanced Salt Solution (Gibco) + 20 mM HEPES (Sigma-Aldrich)] was added. Concentrations tested ranged from 0 to 100 μM. Data were collected in raw fluorescence units (RFU).
Each test plate included replicates of 10 μM FMRFa3 (H‐Ala‐Gly‐Gln‐Gly‐Phe‐Met‐Arg‐Phe‐NH2), an Ae. aegypti neuropeptide agonist of NPYLR7 used to calculate the hundred percent effect (HPE). The zero percent effect (ZPE) control was calculated as a response to buffer alone. The Z′ factor was calculated for each plate by Z^′=1-3σHPE+3σZPE/|μHPE-μZPE| . Plates with Z′ < 0.5 were excluded from analysis. Raw fluorescence units (RFU) were converted to percent effect relative to the average of the ZPE and HPE. Percent effect = (sample luminescence − average ZPE)/(average HPE − average ZPE)×100. […] Each replicate was plotted as percent effect versus log[concentration], and replicates with maximal responses between 20 and 250% were used for EC50 calculations. Relative EC50 was calculated using an [Agonist] versus response–variable slope four-parameter model where Y=Bottom+(X^Hillslope)∗(Top-Bottom)/(X^HillSlope+EC50^HillSlope) . For compounds with multiple replicates, the relative EC50 of each replicate was averaged.

[1] = tested on: Aedes aegypti (Orlando strain) females; test: Host-seeking screening assay (miniport olfactometer); assay type: in vivo; conditions: fed 1 μM in saline, tested 48 h post-meal; for Attraction (relative to saline): per-compound value of Fig. 3C; for Host-seeking relative to saline (test compound % host-seeking/average matched saline % host-seeking): individual replicates
Method: Groups of 60–150 females were placed in bucket cages with a diameter of 21.6 cm and height of 16.5 cm (VWR) and fasted with access to water for 24 h prior to feeding. Meals were delivered to females via Glytube membrane feeders as described previously. Meals consisted of 1.5 ml sheep blood (HemoStat Laboratories), saline (400 mM NaHCO3 + dih2O), or saline and test compound. Lyophilized compounds were stored at room temperature until use. High-concentration stocks (30 mM in 100% dimethyl sulfoxide [DMSO]) (Sigma-Aldrich) were stored at −20 °C and diluted in saline immediately prior to feeding. Once prepared, meals and glycerol heating elements were warmed in a 42 °C water bath for 15 min to provide warmth to attract mosquitos to feed. ATP (1 mM final concentration) and test compounds (1 μM final concentration) were added prior to placing the meal on top of the mesh on the cage containing female mosquitos. Females were allowed 15–20 min to feed to repletion. Abdominal engorgement was scored by eye and confirmed by weighing females to ensure full feeding (Data S1). […] Females were returned to their original cage with a diH2O wick for 48 h prior to behavioral testing. The lethality of each compound was measured by counting the number of dead females in each cage 24 h post-meal.
Miniport olfactometers were fabricated in-house as described previously. Information regarding design, construction, and use can be found at https://github.com/VosshallLab/Miniport-Construction. Miniport canisters consisted of a 6″ × 3″ × 3″ acrylic tube with a mesh screen to allow for air flow. Groups of 10–20 females were loaded into canisters 24 h post-meal. Females were left in canisters overnight to acclimate with two cotton balls soaked in diH20 to prevent desiccation. Behavior trials began 48 h post-meal. Canisters were randomly assigned to attraction traps 1–4 and given 5 min to acclimate. The stimulus end of the trap was connected to a flowmeter that supplied 5% CO2 at a rate of 30 ml/min. Thirty seconds of CO2 flow was supplied to activate females prior to opening the sliding door. Once opened, the sliding door gave females access to the attraction trap baited with a human-scented nylon stocking previously worn by the same experimenter for 8–10 h to collect body odor and stored in a plastic bag at −20 °C until use. After 5 min, the sliding door was closed and attraction was scored as mosquitoes in the attraction trap/total number of mosquitoes. For each experiment data were normalized to the matched average saline attraction from the same experiment (% attracted/average saline attraction). Any dead mosquitoes were excluded from the analysis. Non-fed females and blood-fed females served as environmental control groups while the saline-fed females served as the vehicle control each day. If non-fed or saline-fed females were less than 50% attracted or if blood-fed females were more than 20% attracted behavioral trials were halted and all data from that experimental day were discarded.

[2] = Figure 1E Summary, third list (n = 39), read-out: Reported Metric (Summary list)
[3] = Figure 1E summary value per compound, repeated on each replicate line, read-out: Reported Metric (EC50 summarised over assay dates)
[4] = fit per assay date/plate (c2), repeated on the replicate lines of one date, read-out: EC50
[5] = relative EC50, percent effect relative to 10 μM FMRFa3, read-out: EC50
[6] = EC50 of the individual assay date/plate (assay date), read-out: EC50
[7] = Figure 1E Summary, second list (n = 48), read-out: Reported Metric (Summary list)
[8] = sheet Figure 3C, unit inferred, read-out: EC50
[9] = summary EC50 per compound (mean over assay dates), the unit is taken from the neighbouring EC50 (uM) column, read-out: Reported Metric

| Structure (SMILES) | EC50 (Ae. aegypti NPYLR7; [2]) [µM] | EC50 (Ae. aegypti NPYLR7; [3]) [µM] | EC50 (Ae. aegypti NPYLR7; [4]) | EC50 (Ae. aegypti NPYLR7; [5]) [µM] | Attraction (relative to saline) [1] | EC50 (Ae. aegypti NPYLR7; summary value per compound, matches the mean of the EC50 (uM) values of the assay dates, column head prints no unit, Figure 1 Panel E, read-out: Reported Metric) [µM] | EC50 (Ae. aegypti NPYLR7; [6]) [µM] | EC50 (Ae. aegypti NPYLR7; [7]) [µM] | activation at 100 µM (Ae. aegypti NPYLR7) [%] | EC50 (Ae. aegypti NPYLR7; [8]) [µM] | EC50 (Ae. aegypti NPYLR7; [9]) [µM] | Host-seeking relative to saline (test compound % host-seeking/average matched saline % host-seeking) ([1]; listed as TDI-03758) | Host-seeking relative to saline (test compound % host-seeking/average matched saline % host-seeking) ([1]; listed as TDI-04167) |
| --- | --- | --- | --- | --- | --- | --- | --- | --- | --- | --- | --- | --- | --- |
| COc1cc2c(C)nc(NC(=N)N)nc2cc1OCc1ccccc1 [TDI-012943] | 0.0545 | 0.0545 | 0.0446 µM and 0.119 µM | 0.0545 | 1.035 | – | – | – | – | – | – | – | – |
| COc1ccc(COc2ccc3c(C)nc(NC(=N)N)nc3c2)cc1 [TDI-013000] | 0.0277 | 0.0277 | 0.0817 µM and 0.0282 µM | 0.0277 | 0.925 | 0.0277 | – | – | – | – | – | – | – |
| CCOc1cc2c(C)nc(NC(=N)N)nc2cc1OCc1ccccc1 [TDI-013758] | – | – | – | 8.53 | 0.78 | – | 8.53 | 8.53 | 80.6 | 8.53 | 8.53 | 1.17 | – |
| Cc1nc(NC(=N)N)nc2cc(OCC3CCCOC3)ccc12 (stereo not drawn) [TDI-014167] | – | – | – | 7.37 | 0.975 | – | 7.37 | 7.37 | 66.1 | 7.37 | 7.37 | – | 0.97 |
